Data on nine molecules can be found in patent US7595313B2, “Nitric oxide donating diuretic compounds, compositions and methods of use” (NicOx, S.A., priority 2005, dated 2009).

For one data set, the system named is Male Wistar rats. The data set is described as follows: Determination of the diuresis (urine volume over 6 hours after oral dosing). The data set is classed as in vivo, rat. In short, it runs like this:
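Male Wistar rats (180-200 g) in metabolic cages, fasted 18 h, water withdrawn 90 min before dosing. Compounds in 0.5% Methocel given p.o. at 30 or 3 mg/kg; urine volume collected over 6 h. Mean ±SEM, n=6 or 7.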

Where [1] appears, read: p.o. 3 mg/kg in 0.5% Methocel, male Wistar rats, 6 hours, mean ± SEM, n=6 or 7, 3 mg/kg.

Turning to `CN(CC1Nc2cc(Cl)c(S(N)(=O)=O)cc2S(=O)(=O)N1)C(=O)c1cc(CO[N+](=O)[O-])cc(CO[N+](=O)[O-])c1` (stereo not drawn) [Example 65d, (5-{[{[7-(Aminosulfonyl)-6-chloro-1,1-dioxido-3,4-dihydro-2H-1,2,4-benzothiadiazin-3-yl]methyl}(methyl)amino]carbonyl}-1,3-phenylene)bis(methylene)dinitrate], the melting point (usually the temperature, or range, at which the solid turns liquid) was 137 °C (dec.). Besides, the “Urine collected in 6 hours (mL) (3 mg/kg)” value (from here on “Urine collected in 6 hours”) in the data set on Male Wistar rats (rat, in vivo, po) turned out to be 4.6 ± 0.3 mL.

For the molecule `NS(=O)(=O)c1cc2c(cc1Cl)NCN(C/C=C/CO[N+](=O)[O-])S2(=O)=O` [Example 67b, 2H-1,2,4-Benzothiadiazine-7-sulfonamide, 6-chloro-3,4-dihydro-2-[(2E)-4-(nitrooxy)-2-butenyl]-, 1,1-dioxide], the melting point was 160 to 162 °C (dec.). Further, the “Urine collected in 6 hours” value with Male Wistar rats (p.o. 3 mg/kg in 0.5% Methocel, male Wistar rats, 6 hours, mean ± SEM, n=6 or 7) worked out at 6.7 ± 0.6 mL.

In turn, `NS(=O)(=O)c1cc2c(cc1Cl)NCN(CCCCOc1cc(CO[N+](=O)[O-])cc(CO[N+](=O)[O-])c1)S2(=O)=O` [Example 69b, 2H-1,2,4-Benzothiadiazine-7-sulfonamide, 2-[4-[3,5-bis[(nitrooxy)methyl]phenoxy]butyl]-6-chloro-3,4-dihydro-, 1,1-dioxide] had a melting point of 65 to 67 °C. In the data set with Male Wistar rats (rat, in vivo, po), the “Urine collected in 6 hours” value is recorded as 2.5 ± 0.5 mL.

In the case of `NS(=O)(=O)c1cc2c(cc1Cl)NCN(CCCOc1cc(CO[N+](=O)[O-])cc(CO[N+](=O)[O-])c1)S2(=O)=O` [Example 70c, 2H-1,2,4-Benzothiadiazine-7-sulfonamide, 2-[3-[3,5-bis[(nitrooxy)methyl]phenoxy]propyl]-6-chloro-3,4-dihydro-, 1,1-dioxide], the melting point was 70 to 72 °C. For the same molecule, in the data set with Male Wistar rats (rat, in vivo, po), the “Urine collected in 6 hours” value worked out at 3.3 ± 0.4 mL.

On to `NS(=O)(=O)c1cc2c(cc1Cl)NCN(CCOc1cc(CO[N+](=O)[O-])cc(CO[N+](=O)[O-])c1)S2(=O)=O` [Example 71c, 2H-1,2,4-Benzothiadiazine-7-sulfonamide, 2-[2-[3,5-bis[(nitrooxy)methyl]phenoxy]ethyl]-6-chloro-3,4-dihydro-, 1,1-dioxide], for which the melting point lay in the range of 72 to 75 °C. The “Urine collected in 6 hours” value in the data set with Male Wistar rats (rat, in vivo, po) is listed as 1.3 ± 0.6 mL.

Molecule `NS(=O)(=O)c1cc2c(cc1Cl)NCN(CC(=O)N(CCCO[N+](=O)[O-])CCCO[N+](=O)[O-])S2(=O)=O` [Example 72b, 2H-1,2,4-Benzothiadiazine-2-acetamide, 7-(aminosulfonyl)-6-chloro-3,4-dihydro-N,N-bis[3-(nitrooxy)propyl]-, 1,1-dioxide] had a melting point of 157 to 160 °C. Moreover, the “Urine collected in 6 hours” value with Male Wistar rats (rat, in vivo, po) turned out to be 1.8 ± 0.2 mL.

Regarding `NS(=O)(=O)c1cc2c(cc1Cl)NCN(CC[C@H](CO[N+](=O)[O-])O[N+](=O)[O-])S2(=O)=O` [Example 73b, 2H-1,2,4-Benzothiadiazine-7-sulfonamide, 2-[(3R)-3,4-bis(nitrooxy)butyl]-6-chloro-3,4-dihydro-, 1,1-dioxide], the melting point lay in the range of 158 to 162 °C. Further, the “Urine collected in 6 hours” value in the data set with Male Wistar rats (rat, in vivo, po) is 3.8 ± 0.5 mL.

The molecule `CC1(C)CC(CC2Nc3cc(Cl)c(S(N)(=O)=O)cc3S(=O)(=O)N2)CC(C)(C)N1O` (stereo not drawn) [Example 76b, 1-Piperidinyloxy, 4-[[7-(aminosulfonyl)-6-chloro-3,4-dihydro-1,1-dioxido-2H-1,2,4-benzothiadiazin-3-yl]methyl]-2,2,6,6-tetramethyl-] showed a melting point of 238 to 240 °C. In the data set on Male Wistar rats (setting [1]), the “Urine collected in 6 hours” value is on record as 2.2 ± 0.4 mL.

As for `CC1(C)CC(CC2Nc3cc(Cl)c(S(N)(=O)=O)cc3S(=O)(=O)N2)CC(C)(C)N1O` (stereo not drawn) [Example 77, 2H-1,2,4-Benzothiadiazine-7-sulfonamide, 6-chloro-3,4-dihydro-3-[(1-hydroxy-2,2,6,6-tetramethyl-4-piperidinyl)methyl]-, 1,1-dioxide], the melting point was 174 to 176 °C. Also, the “Urine collected in 6 hours” value in the data set with Male Wistar rats (setting [1]) is listed as 2.3 ± 0.4 mL.
